# Data as given in patent publication US4311791A, “Automated kinetic determination of lactate dehydrogenase isoenzymes in serum” (priority 1980, dated 1982).
# Experiments:
# [1] = biological target: T1, LD from human heart (Homo sapiens, UniProt P07195); test: Inhibition of LD activity in human heart extract by high pyruvate, without preincubation (present method); type: biochemical
# T1 construct: Human tissue extracts were prepared by sonic disruption; from tissue; host or cells: human heart, crude extract (sonicated, supernatant of centrifugation)
# T1 sequence (P07195 2-334): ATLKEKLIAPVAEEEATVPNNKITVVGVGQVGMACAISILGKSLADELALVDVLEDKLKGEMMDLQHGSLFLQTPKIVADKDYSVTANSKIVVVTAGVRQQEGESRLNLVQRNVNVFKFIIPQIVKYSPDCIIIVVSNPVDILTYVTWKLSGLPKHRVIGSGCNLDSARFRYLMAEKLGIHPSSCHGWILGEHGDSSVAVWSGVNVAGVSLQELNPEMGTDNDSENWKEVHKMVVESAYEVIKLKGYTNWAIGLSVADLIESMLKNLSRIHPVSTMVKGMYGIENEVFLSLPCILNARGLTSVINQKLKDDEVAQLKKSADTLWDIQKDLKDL
# Experimental: (§1) Preparation of tissue. Human tissue extracts were prepared by sonic disruption (at 4° l C. for 1 min.) of 1 g (wet weight) of tissue in 9 ml of potassium phosphate buffer (0.1 mol/liter, pH 7.0). The homogenates were centrifuged at 4° C. at 5×10^4 g for 10 min.; and the superiors were promptly examined for LD activity and stored at -80° C.
# (§2) Assay for total LD activity. The measurements were at 340 nm and 25° C. in a Model 240 (Gilford Instrument, Oberlin, Ohio 44074) digital kinetic spectrophotometer when manual determinations were needed to supply data for calibration curves with purified enzymes or with tissue extracts, and for serum assays in the preliminary stages of developing the method. Sera were assayed at 25° C. in a centrifugal analyzer (GEMSAEC; Electronucleonics, Inc., Fairfield, N.J. 07006) after the optimum conditions were known to be suitable for manual determinations. For automated determinations 500 ul of pyruvate reaction mixture and 50 ul of serum (an 11-fold dilution of the serum) were required. Conditions for measuring total LD activity were: 0.34 mmol of pyruvate and 0.13 mmcl of NADH per liter of the phosphate buffer. The molar absorptivity 6.22×10^3 liter mol^-1 cm^-1 for NADH was used in calculating enzyme activity in IUB units.
# (§3) Kinetic determination of isoenzymes. LD's are inhibited by their substrate, the H-type LD being inhibited by pyruvate to a greater extent than the M-type LD. This inhibition, related to the formation of an abortive ternary complex, was the basis of the method that has been used to distinguish the heart enzyme from the muscle enzyme after preincubation. […]
# [2] = biological target: T2, LD from human liver (Homo sapiens, UniProt P00338); test: Inhibition of LD activity in human liver extract by high pyruvate, without preincubation (present method); type: biochemical
# T2 construct: Human tissue extracts were prepared by sonic disruption; from tissue; host or cells: human liver, crude extract (sonicated, supernatant of centrifugation)
# Experimental: as §1, §2, §3
# [3] = biological target: chicken heart LD (Gallus gallus, UniProt P00337); test: Inhibition of chicken heart LD by pyruvate; type: biochemical; details: 3.4 mmol/liter pyruvate
# Chain of chicken heart LD (P00337 whole entry): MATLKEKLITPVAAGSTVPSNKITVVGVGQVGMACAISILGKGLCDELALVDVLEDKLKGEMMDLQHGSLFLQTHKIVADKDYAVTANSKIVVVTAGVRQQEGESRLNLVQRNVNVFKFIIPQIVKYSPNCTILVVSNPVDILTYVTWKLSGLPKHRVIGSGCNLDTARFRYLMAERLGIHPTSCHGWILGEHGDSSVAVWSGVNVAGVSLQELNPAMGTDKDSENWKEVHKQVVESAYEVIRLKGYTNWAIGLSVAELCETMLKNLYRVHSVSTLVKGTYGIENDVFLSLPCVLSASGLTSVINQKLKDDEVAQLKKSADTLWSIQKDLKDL
# Experimental: as §2
# (§4) Assay conditions. Studies of the pH dependence of the inhibition of chicken heart LD at an initial substrate concentration of 3.4 mmol/liter pyruvate (control rate, 0.1 absorbance unit change per minute at 0.34 mmol/liter pyruvate) indicated the pH for maximum inhibition of LD activity to be pH 7, although pH 6.5 was also suitable for the inhibition. […]
# [4] = tested on: rabbit muscle LD; test: Activity/inhibition of crystalline rabbit muscle LD at high pyruvate; type: biochemical
# Experimental: as §2, §4
# [5] = tested on: LD from human kidney; test: Inhibition of human kidney LD, present method; type: biochemical; details: mean ± 2 SD, at least seven sources
# Experimental: as §1, §2
# (§5) Kinetic determination of isoenzymes. […]
# [6] = tested on: LD from human brain; test: Inhibition of human brain LD, present method; type: biochemical; details: mean ± 2 SD, at least seven sources
# Experimental: as §1, §2, §5
# [7] = tested on: LD from human spleen; test: Inhibition of human spleen LD, present method; type: biochemical; details: mean ± 2 SD, at least seven sources
# Experimental: as §1, §2, §5
# [8] = tested on: LD from human muscle; test: Inhibition of human muscle LD, present method; type: biochemical; details: mean ± 2 SD, at least seven sources
# Experimental: as §1, §2, §5
# [9] = tested on: H-type LD; test: Kinetic determination of isoenzymes: inhibition of human H-type LD without preincubation; type: biochemical; details: 5 mmol pyruvate and 0.13 mmol NADH per liter, phosphate buffer pH 7.0
# Experimental: (§6) Kinetic determination of isoenzymes. LD's are inhibited by their substrate, the H-type LD being inhibited by pyruvate to a greater extent than the M-type LD. This inhibition, related to the formation of an abortive ternary complex, was the basis of the method that has been used to distinguish the heart enzyme from the muscle enzyme after preincubation.
# (§7) Conditions for inhibiting the human LD activity without any preincubation were: 5 mmol of pyruvate and 0.13 mmol of NADH per liter of 100 l mmol/liter potassium phosphate buffer, pH 7.0.
# [10] = tested on: M-type LD; test: Kinetic determination of isoenzymes: inhibition of human M-type LD without preincubation; type: biochemical; details: 5 mmol pyruvate and 0.13 mmol NADH per liter, phosphate buffer pH 7.0
# Experimental: as §6, §7
# [11] = biological target: T1, LD from human heart; details: previously reported, mean ± 2 SD; cited from earlier work
# [12] = biological target: T2, LD from human liver; details: previously reported, mean ± 2 SD; cited from earlier work
# [13] = tested on: LD from human kidney; details: previously reported, mean ± 2 SD; cited from earlier work
# [14] = tested on: LD from human brain; details: previously reported, mean ± 2 SD; cited from earlier work
# [15] = tested on: LD from human spleen; details: previously reported, mean ± 2 SD; cited from earlier work
# [16] = tested on: LD from human muscle; details: previously reported, mean ± 2 SD; cited from earlier work
# [17] = present method, mean ± 2 SD, at least seven sources
compound,measurement,setting,value
"CC(=O)C(=O)[O-].[Na+] [pyruvate, Sodium pyruvate]","Percent inhibition, Heart","[1]; 5 mmol/liter pyruvate, pH 6",90%
same,"Percent inhibition, Heart","[1]; 5 mmol/liter pyruvate, pH 7",69%
same,"Percent inhibition, Heart","[1]; 5 mmol/liter pyruvate, pH 8",40%
same,"Percent inhibition, Heart","[1]; 10 mmol/liter pyruvate, pH 6",91%
same,"Percent inhibition, Heart","[1]; 10 mmol/liter pyruvate, pH 7",79%
same,"Percent inhibition, Heart","[1]; 10 mmol/liter pyruvate, pH 8",50%
same,"Percent inhibition, Present method, Heart",[1]; [17],60.8 ± 10.8%
same,"Percent inhibition, Liver","[2]; 5 mmol/liter pyruvate, pH 6",53%
same,"Percent inhibition, Liver","[2]; 5 mmol/liter pyruvate, pH 7",20%
same,"Percent inhibition, Liver","[2]; 5 mmol/liter pyruvate, pH 8, negative sign = increased rate",-19%
same,"Percent inhibition, Liver","[2]; 10 mmol/liter pyruvate, pH 6",65%
same,"Percent inhibition, Liver","[2]; 10 mmol/liter pyruvate, pH 7",50%
same,"Percent inhibition, Liver","[2]; 10 mmol/liter pyruvate, pH 8, negative sign = increased rate",-14%
same,"Percent inhibition, Present method, Liver",[2]; [17],17.6 ± 11.8%
same,pH for maximum inhibition of LD activity,[3],7
same,inhibition of chicken heart LD,[3]; pH 8 and above,no inhibition was seen
same,"reaction rate, % of the maximum velocity",[4]; 3.4 mmol/liter pyruvate,114%
same,inhibition of rabbit muscle LD,[4]; 10 mmol/liter pyruvate,2%
same,"Percent inhibition, Present method, Kidney",[5],53.1 ± 5.0%
same,"Percent inhibition, Present method, Brain",[6],50.6 ± 8.4%
same,"Percent inhibition, Present method, Spleen",[7],43.5 ± 9.0%
same,"Percent inhibition, Present method, Muscle",[8],16.1 ± 11.8%
same,inhibition of the H-type LD,[9],more than 50%
same,inhibition of the M-type LD,[10],slight inhibition
same,"Percent inhibition, Preincubation method, Heart",[11],61.1 ± 8.3%
same,"Percent inhibition, Preincubation method, Liver",[12],18.3 ± 10.0%
same,"Percent inhibition, Preincubation method, Kidney",[13],53.0 ± 15.1%
same,"Percent inhibition, Preincubation method, Brain",[14],59.0 ± 6.6%
same,"Percent inhibition, Preincubation method, Spleen",[15],41.3 ± 8.5%
same,"Percent inhibition, Preincubation method, Muscle",[16],17.3 ± 12.2%
